Biological target: T1, hCB1 (Homo sapiens, UniProt P21554)
T1 construct: made in house; host or cells: Sf9 insect cells (baculovirus), P2 membranes
Assay: Agonist-induced GTP binding (GTPγ35S) assay at CB1, Example 8
Type: biochemical
Details: IC50 at CB1, determined as described in Example 8; read-out: IC50
In short: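 Membranes from Sf9 cells co-expressing hCB1 and heterotrimeric G-protein (10 μg protein) in Tris pH 7.4 buffer with 5 μM GDP. Test compounds (10^−10–10^−5 M) competed against 1 nM CP55,940 with […] GTPγ35S, 60 min at room temperature. Filter-bound radioactivity by scintillation, expressed as percent above basal.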

T1 sequence (P21554 whole entry): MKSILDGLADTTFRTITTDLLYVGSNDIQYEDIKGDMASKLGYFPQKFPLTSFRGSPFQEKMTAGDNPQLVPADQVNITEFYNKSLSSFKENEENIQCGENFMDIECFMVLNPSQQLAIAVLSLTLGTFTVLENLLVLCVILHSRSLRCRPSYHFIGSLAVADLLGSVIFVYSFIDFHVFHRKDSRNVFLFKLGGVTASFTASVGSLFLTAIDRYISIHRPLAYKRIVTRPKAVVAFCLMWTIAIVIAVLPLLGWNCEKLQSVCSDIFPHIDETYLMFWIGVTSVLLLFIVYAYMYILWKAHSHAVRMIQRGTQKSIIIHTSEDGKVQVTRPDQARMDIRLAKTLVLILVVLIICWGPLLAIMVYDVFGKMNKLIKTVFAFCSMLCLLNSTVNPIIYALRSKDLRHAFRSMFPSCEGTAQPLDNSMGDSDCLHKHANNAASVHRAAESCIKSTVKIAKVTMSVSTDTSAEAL

Row | Compound | IC50 [nM]
1 | CCCOc1ccc(NC(=O)Nc2cccc(C(=O)OCC)c2)cc1 [Compound 671, ethyl 3-({[(4-propoxyphenyl)amino]carbonyl}amino)benzoate] | < 2000
2 | CCOC(=O)c1cccc(NC(=O)Nc2cccc(OC(C)C)c2)c1 [Compound 672, ethyl 3-({[(3-isopropoxyphenyl)amino]carbonyl}amino)benzoate] | < 2000
3 | CCOC(=O)c1ccc(NC(=O)Nc2cccc(OC(C)C)c2)cc1 [Compound 673, ethyl 4-({[(3-isopropoxyphenyl)amino]carbonyl}amino)benzoate] | < 2000
4 | CCOC(=O)c1cccc(NC(=O)Nc2ccc(OC(C)C)cc2)c1 [Compound 674, ethyl 3-({[(4-isopropoxyphenyl)amino]carbonyl}amino)benzoate] | < 2000
5 | CCOC(=O)c1ccc(NC(=O)Nc2ccc(OC(C)C)cc2)cc1 [Compound 675, ethyl 4-({[(4-isopropoxyphenyl)amino]carbonyl}amino)benzoate] | < 2000
6 | CCOc1cccc(NC(=O)Nc2ccc(C)c(C)c2)c1 [Compound 680, 1-(3,4-dimethylphenyl)-3-(3-ethoxyphenyl)urea] | < 2000
7 | COCc1ccc(NC(=O)Nc2ccc(C)c(C)c2)cc1 [Compound 684, 1-(3,4-dimethylphenyl)-3-[4-(methoxymethyl)phenyl]urea] | < 2000
8 | COCc1ccc(NC(=O)Nc2ccc(C)c(F)c2)cc1 [Compound 685, 1-(3-fluoro-4-methylphenyl)-3-[4-(methoxymethyl)phenyl]urea] | < 2000
9 | CCCOc1ccc(NC(=O)Nc2ccc(F)c(F)c2)cc1 [Compound 686, 1-(3,4-difluorophenyl)-3-(4-propoxyphenyl)urea] | < 2000
10 | Cc1ccc(NC(=O)Nc2ccc(OC(C)C)cc2)cc1C [Compound 691, 1-(3,4-dimethylphenyl)-3-(4-isopropoxyphenyl)urea] | < 2000
11 | Cc1ccc(NC(=O)Nc2ccc(OC(C)C)cc2)cc1F [Compound 692, 1-(3-fluoro-4-methylphenyl)-3-(4-isopropoxyphenyl)urea] | < 2000
12 | Cc1cc(NC(=O)Nc2ccc(OC(C)C)cc2)ccc1F [Compound 693, 1-(4-fluoro-3-methylphenyl)-3-(4-isopropoxyphenyl)urea] | < 2000
13 | CC(C)Oc1ccc(NC(=O)Nc2ccc(F)c(F)c2)cc1 [Compound 694, 1-(3,4-difluorophenyl)-3-(4-isopropoxyphenyl)urea] | < 2000
14 | Cc1ccc(F)cc1NC(=O)Nc1ccc(OC(C)C)cc1 [Compound 698, 1-(5-fluoro-2-methylphenyl)-3-(4-isopropoxyphenyl)urea] | < 2000
15 | COc1ccc(NC(=O)Nc2cc(F)cc(F)c2)cc1 [Compound 701, 1-(3,5-difluorophenyl)-3-(4-methoxyphenyl)urea] | < 2000
16 | CCOc1cccc(NC(=O)Nc2cc(F)cc(F)c2)c1 [Compound 702, 1-(3,5-difluorophenyl)-3-(3-ethoxyphenyl)urea] | < 2000

Row | Compound | IC50 [nM]
17 | CCOc1ccc(NC(=O)Nc2cc(C)cc(C)c2)cc1 [Compound 704, 1-(3,5-dimethylphenyl)-3-(4-ethoxyphenyl)urea] | < 2000
18 | COCc1ccc(NC(=O)Nc2cc(F)cc(F)c2)cc1 [Compound 705, 1-(3,5-difluorophenyl)-3-[4-(methoxymethyl)phenyl]urea] | < 2000
19 | CCCOc1ccc(NC(=O)Nc2cc(C)cc(C)c2)cc1 [Compound 706, 1-(3,5-dimethylphenyl)-3-(4-propoxyphenyl)urea] | < 2000
20 | Cc1cc(C)cc(NC(=O)Nc2cccc(OC(C)C)c2)c1 [Compound 707, 1-(3,5-dimethylphenyl)-3-(3-isopropoxyphenyl)urea] | < 2000
21 | CC(C)Oc1ccc(NC(=O)Nc2cc(F)cc(F)c2)cc1 [Compound 709, 1-(3,5-difluorophenyl)-3-(4-isopropoxyphenyl)urea] | < 2000
22 | COC(=O)c1cccc(NC(=O)Nc2ccc(CC#N)cc2)c1 [Compound 712, methyl 3-[({[4-(cyanomethyl)phenyl]amino}carbonyl)amino]benzoate] | < 2000
23 | COC(=O)c1ccc(NC(=O)Nc2ccc(CC#N)cc2)cc1 [Compound 713, methyl 4-[({[4-(cyanomethyl)phenyl]amino}carbonyl)amino]benzoate] | < 2000
24 | CCOC(=O)c1cccc(NC(=O)Nc2ccc(CC#N)cc2)c1 [Compound 714, ethyl 3-[({[4-(cyanomethyl)phenyl]amino}carbonyl)amino)benzoate] | < 2000
25 | CCOC(=O)c1ccc(NC(=O)Nc2ccc(CC#N)cc2)cc1 [Compound 715, ethyl 4-[({[4-(cyanomethyl)phenyl]amino}carbonyl)amino]benzoate] | < 2000
26 | COC(=O)c1cccc(NC(=O)Nc2ccc(OCC#N)cc2)c1 [Compound 716, methyl 3-[({[4-(cyanomethoxy)phenyl]amino}carbonyl)amino] benzoate] | < 2000
27 | COC(=O)c1ccc(NC(=O)Nc2ccc(OCC#N)cc2)cc1 [Compound 717, methyl 4-[({[4-(cyanomethoxy)phenyl]amino}carbonyl)amino] benzoate] | < 2000
28 | CCOC(=O)c1cccc(NC(=O)Nc2ccc(OCC#N)cc2)c1 [Compound 718, ethyl 3-[({[4-(cyanomethoxy)phenyl]amino}carbonyl)amino]benzoate] | < 2000
29 | CCOC(=O)c1ccc(NC(=O)Nc2ccc(OCC#N)cc2)cc1 [Compound 719, ethyl 4-[({[4-(cyanomethoxy)phenyl]amino}carbonyl)amino]benzoate] | < 2000
30 | CCC(=O)c1ccc(NC(=O)Nc2cccc(C(=O)OC)c2)cc1 [Compound 720, methyl 3-({[(4-propionylphenyl)amino]carbonyl}amino)benzoate] | < 2000
31 | CCOC(=O)c1cccc(NC(=O)Nc2ccc(C(=O)CC)cc2)c1 [Compound 721, ethyl 3-({[(4-propionylphenyl)amino]carbonyl}amino)benzoate] | < 2000
32 | CCOC(=O)c1ccc(NC(=O)Nc2cccc(C(=O)OCC)c2)cc1 [Compound 722, ethyl 3-[({[4-(ethoxycarbonyl)phenyl]amino}carbonyl)amino] benzoate] | < 2000

More lines, now with the values ahead:

Row | IC50 [nM] | Compound
33 | < 2000 | COC(=O)c1cccc(NC(=O)Nc2cccc(OC(F)F)c2)c1 [Compound 676, methyl 3-[({[3-(difluoromethoxy)phenyl]amino}carbonyl)amino]benzoate]
34 | < 2000 | COC(=O)c1ccc(NC(=O)Nc2cccc(OC(F)F)c2)cc1 [Compound 677, methyl 4-[({[3-(difluoromethoxy)phenyl]amino}carbonyl)amino]benzoate]
35 | < 2000 | CCOC(=O)c1ccc(NC(=O)Nc2cccc(OC(F)F)c2)cc1 [Compound 678, ethyl 4-[({[3-(difluoromethoxy)phenyl]amino}carbonyl)amino]benzoate]
36 | < 2000 | COC(=O)c1cccc(NC(=O)Nc2ccc(OC(F)F)cc2)c1 [Compound 679, methyl 3-[({[4-(difluoromethoxy)phenyl]amino}carbonyl)amino]benzoate]
37 | < 2000 | CCOc1cccc(NC(=O)Nc2ccc(C)c(F)c2)c1 [Compound 681, 1-(3-ethoxyphenyl)-3-(3-fluoro-4-methylphenyl)urea]
38 | < 2000 | CCOc1cccc(NC(=O)Nc2ccc(F)c(C)c2)c1 [Compound 682, 1-(3-ethoxyphenyl)-3-(4-fluoro-3-methylphenyl)urea]
39 | < 2000 | CCOc1cccc(NC(=O)Nc2ccc(F)c(F)c2)c1 [Compound 683, 1-(3,4-difluorophenyl)-3-(3-ethoxyphenyl)urea]
40 | < 2000 | Cc1ccc(NC(=O)Nc2cccc(OC(C)C)c2)cc1C [Compound 687, 1-(3,4-dimethylphenyl)-3-(3-isopropoxyphenyl)urea]
41 | < 2000 | Cc1ccc(NC(=O)Nc2cccc(OC(C)C)c2)cc1F [Compound 688, 1-(3-fluoro-4-methylphenyl)-3-(3-isopropoxyphenyl)urea]
42 | < 2000 | Cc1cc(NC(=O)Nc2cccc(OC(C)C)c2)ccc1F [Compound 689, 1-(4-fluoro-3-methylphenyl)-3-(3-isopropoxyphenyl)urea]
43 | < 2000 | CC(C)Oc1cccc(NC(=O)Nc2ccc(F)c(F)c2)c1 [Compound 690, 1-(3,4-difluorophenyl)-3-(3-isopropoxyphenyl)urea]
44 | < 2000 | Cc1ccc(NC(=O)Nc2cccc(OC(F)F)c2)cc1C [Compound 695, 1-[3-(difluoromethoxy)phenyl]-3-(3,4-dimethylphenyl)urea]
45 | < 2000 | Cc1ccc(NC(=O)Nc2cccc(OC(F)F)c2)cc1F [Compound 696, 1-[3-(difluoromethoxy)phenyl]-3-(3-fluoro-4-methylphenyl)urea]
46 | < 2000 | Cc1cc(NC(=O)Nc2cccc(OC(F)F)c2)ccc1F [Compound 697, 1-[3-(difluoromethoxy)phenyl]-3-(4-fluoro-3-methylphenyl)urea]
47 | < 2000 | Cc1ccc(F)c(NC(=O)Nc2cccc(OC(F)F)c2)c1 [Compound 699, 1-[3-(difluoromethoxy)phenyl]-3-(2-fluoro-5-methylphenyl)urea]
48 | < 2000 | Cc1ccc(F)cc1NC(=O)Nc1cccc(OC(F)F)c1 [Compound 700, 1-[3-(difluoromethoxy)phenyl]-3-(5-fluoro-2-methylphenyl)urea]
49 | < 2000 | CCOc1cccc(NC(=O)Nc2ccc(C)cc2C)c1 [Compound 703, 1-(2,4-dimethylphenyl)-3-(3-ethoxyphenyl)urea]
50 | < 2000 | CC(C)Oc1cccc(NC(=O)Nc2cc(F)cc(F)c2)c1 [Compound 708, 1-(3,5-difluorophenyl)-3-(3-isopropoxyphenyl)urea]
51 | < 2000 | Cc1cc(C)cc(NC(=O)Nc2cccc(OC(F)F)c2)c1 [Compound 710, 1-[3-(difluoromethoxy)phenyl]-3-(3,5-dimethylphenyl)urea]
52 | < 2000 | Cc1ccc(NC(=O)Nc2cccc(OC(F)F)c2)c(C)c1 [Compound 711, 1-[3-(difluoromethoxy)phenyl]-3-(2,4-dimethylphenyl)urea]
